# US8637510B2, “Morpholinothiazoles as alpha 7 positive allosteric modulators” (Janssen Pharmaceutica NV, priority 2009, dated 2014)
# Columns and labels:
# human alpha 7-wt nAChR = target: T1, human alpha 7-wt nAChR (Homo sapiens, UniProt P36544); test: Ca2+ flux imaging (FDSS) (Protocol B); assay type: cell-based; conditions: for Emax: efficacy of 100 μM choline defined as 100% in the absence of a PAM, read-out: a7-PAM-G_[33]_Eff_Curve_FI % Efficacy; for EC50: potentiation of 100 μM choline, compounds 0.01 μM to 30 μM, read-out: a7-PAM-G_[33]_pEC50 pEC50 (converted)
# T1 construct: expressed in transfected cells
# Summary of the method: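 Fluo-4AM-loaded cells expressing human α7-wt nAChR, in HBSS with 10 mM HEPES, 5 mM CaCl2, 0.1% BSA, received compound (0.01–30 μM), typically 10 min before 100 μM choline, with calcium flux read in real time. Potentiation is relative to choline alone (100%); EC50 from sigmoidal curves.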
# [1] = target: T2, human alpha 7-wt nAChR-expressing GH4C1 cells (Homo sapiens, UniProt P36544); test: Patch-clamp current recording (whole-cell voltage-clamp, PAM type classification); assay type: cell-based; design: key: Type 0 compounds minimally change the effect size of the current elicited by 1 mM choline.; Type 1 compounds enhance the effect size of the current elicited by 1 mM choline but minimally alter the kinetics of the receptor.; Type 2 compounds enhance the effect size of the current elicited by 1 mM choline while reducing the rate and/or the extent of desensitization.; Type 3 compounds enhance the effect size of the current elicited by 1 mM choline. When tested at higher concentrations up to 10 μM they completely inhibit desensitization; Type 4 compounds allow for an initial desensitization of the receptor followed by a re-opening of the receptor during agonist application; conditions: 1 mM choline
# T2 construct: expressed in transfected cells
# Method: The compounds of the present invention are classified as type 1-4, based on qualitative kinetic properties, as determined by whole-cell voltage-clamp recordings. This classification is based on the effect of an alpha 7 PAM compound, as described hereinbefore, on the signal elicited by an agonist application. In particular, said agonist is choline at a concentration of 1 mM. In a preferred experimental setting, said alpha 7 PAM compound and choline are simultaneously applied to the cell, as described hereinafter. Desensitization is defined as the closure of the receptor upon activation during the application of the agonist in whole-cell voltage-clamp electrophysiology measurements seen as the reduction of the […] current after initial activation by the agonist.
# The definition of the PAM types 1-4 is described hereinafter: • Type 0 compounds minimally change the effect size of the current elicited by 1 mM choline. • Type 1 compounds enhance the effect size of the current elicited by 1 mM choline but minimally alter the kinetics of the receptor. In particular, the rate and the extent of desensitization and of deactivation of the receptor elicited by the agonist is not affected. The compound-modulated response to 1 mM choline, therefore, is close to a linear scaling of the 1 mM choline response in absence of the alpha 7 PAM compound. • Type 2 compounds enhance the effect size of the current elicited by 1 mM choline while reducing the rate and/or the extent of desensitization. Deactivation of the receptor is generally unaffected. • Type 3 compounds enhance the effect size of the current elicited by 1 mM choline. […] Deactivation of the receptor may be slowed down • Type 4 compounds allow for an initial desensitization of the receptor followed by a re-opening of the receptor during agonist application. At low-potency concentrations of the alpha 7 PAM compound, the agonist-induced activation, which is followed by desensitization, can still be separated from the compound-induced re-opening as an initial inward current-maximum. At higher potency concentrations of the alpha 7 PAM compound, the re-opening occurs faster than the closure due to desensitization so that the initial current-maximum disappears.
# A compound was considered to have interesting PAM-like activity when the potentiation of the peak current was at least 200% compared to the control choline response (=100%). Such compounds are classified as belonging to a particular PAM type in the Experimental Part. Compounds not meeting the condition are not classified as belonging to a particular PAM-type.
# The compounds also have a potentiating effect on the response to choline when measured by whole-cell patch clamp electrophysiology in GH4C1 cells stably over-expressing the human wild-type alpha 7 receptor.
# Patch-clamp recording from mammalian cells has provided a powerful means of assessing the function of membrane-bound proteins thought to be subunits of ligand-gated ion channels. Activation of such proteins by endogenous or exogenous ligands cause opening of a pore associated with the receptor through which ions flow down their electrochemical gradient. In the case of the human alpha 7-wt nAChR-expressing GH4C1 recombinant cell line the preferential permeability to calcium of this receptor means that calcium flows into the cell upon activation by ACh, choline and other nicotinic ligands giving rise to a calcium current. Since this receptor rapidly desensitizes in the presence of agonist it is important that an application system is used which is capable of very rapid switching of solutions (<100 ms) to prevent partial or full desensitisation of receptor responses coincident with the time of agonist application. Consequently, a second convenient technique to assess the enhancement of nicotinic efficacy is a patch-clamp recording from human alpha 7-wt nAChR-expressing GH4C1 cells coupled with a rapid-application system. […]
# T1 sequence (P36544 23-502): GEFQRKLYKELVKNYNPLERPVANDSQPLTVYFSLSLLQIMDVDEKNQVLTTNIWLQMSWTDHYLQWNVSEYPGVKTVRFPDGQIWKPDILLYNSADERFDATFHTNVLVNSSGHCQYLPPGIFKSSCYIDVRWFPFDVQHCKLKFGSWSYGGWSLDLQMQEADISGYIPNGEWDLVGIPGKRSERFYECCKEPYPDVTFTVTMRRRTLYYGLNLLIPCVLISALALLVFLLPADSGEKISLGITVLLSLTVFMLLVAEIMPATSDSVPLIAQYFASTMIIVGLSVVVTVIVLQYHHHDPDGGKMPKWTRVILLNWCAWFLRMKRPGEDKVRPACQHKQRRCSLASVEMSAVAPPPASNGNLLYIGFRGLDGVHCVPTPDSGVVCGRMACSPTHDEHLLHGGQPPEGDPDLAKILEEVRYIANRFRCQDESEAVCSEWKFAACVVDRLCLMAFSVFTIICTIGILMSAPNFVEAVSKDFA
# T2 sequence (P36544 23-502): as above
Emax (human alpha 7-wt nAChR) [%],EC50 (human alpha 7-wt nAChR) [nM],SMILES,PAM_Type PAM type [1]
787,339,"Cc1cc(-c2sc(N3C[C@@H](C)O[C@@H](C)C3)nc2CNC(=O)c2ccc(F)c(F)c2F)cc(C)n1 [Compound 14, N-[[2-[(2R,6S)-2,6-dimethyl-4-morpholinyl]-5-(2,6-dimethyl-4-pyridinyl)-4-thiazolyl]methyl]-2,3,4-trifluoro-benzamide]",2
411,170,"Cc1cc(-c2sc(N3C[C@@H](C)O[C@@H](C)C3)nc2CNC(=O)c2cc(F)cc(F)c2)cc(C)n1 [Compound 15, N-[[2-[(2R,6S)-2,6-dimethyl-4-morpholinyl]-5-(2,6-dimethyl-4-pyridinyl)-4-thiazolyl]methyl]-3,5-difluoro-benzamide]",2
499,1000,"Cc1cc(-c2sc(N3C[C@@H](C)O[C@@H](C)C3)nc2CNC(=O)c2cccnc2C)cc(C)n1 [Compound 17, N-[[2-[(2R,6S)-2,6-dimethyl-4-morpholinyl]-5-(2,6-dimethyl-4-pyridinyl)-4-thiazolyl]methyl]-2-methyl-3-pyridinecarboxamide]",2
378,100,"Cc1cc(-c2sc(N3C[C@@H](C)O[C@@H](C)C3)nc2CNC(=O)c2ccc(Cl)cc2)cc(C)n1 [Compound 19, 4-chloro-N-[[2-[(2R,6S)-2,6-dimethyl-4-morpholinyl]-5-(2,6-dimethyl-4-pyridinyl)-4-thiazolyl]methyl]-benzamide]",2
594,229,"Cc1cc(-c2sc(N3C[C@@H](C)O[C@@H](C)C3)nc2CNC(=O)c2ccc(C(F)(F)F)cc2)cc(C)n1 [Compound 23, N-[[2-[(2R,6S)-2,6-dimethyl-4-morpholinyl]-5-(2,6-dimethyl-4-pyridinyl)-4-thiazolyl]methyl]-4-(trifluoromethyl)-benzamide]",2
526,17.4,"Cc1cc(-c2sc(N3C[C@@H](C)O[C@@H](C)C3)nc2CNC(=O)c2ccc(F)cc2C)cc(C)n1 [Compound 24, N-[[2-[(2R,6S)-2,6-dimethyl-4-morpholinyl]-5-(2,6-dimethyl-4-pyridinyl)-4-thiazolyl]methyl]-4-fluoro-2-methyl-benzamide]",2
235,813,"Cc1cc(-c2sc(N3C[C@@H](C)O[C@@H](C)C3)nc2CNC(=O)c2c(C)noc2C)cc(C)n1 [Compound 25, N-[[2-[(2R,6S)-2,6-dimethyl-4-morpholinyl]-5-(2,6-dimethyl-4-pyridinyl)-4-thiazolyl]methyl]-3,5-dimethyl-4-isoxazolecarboxamide]",0
422,380,"Cc1cc(-c2sc(N3C[C@@H](C)O[C@@H](C)C3)nc2CNC(=O)c2cccc(F)c2F)cc(C)n1 [Compound 32, N-[[2-[(2R,6S)-2,6-dimethyl-4-morpholinyl]-5-(2,6-dimethyl-4-pyridinyl)-4-thiazolyl]methyl]-2,3-difluoro-benzamide]",1
965,100,"Cc1cc(-c2sc(N3C[C@@H](C)O[C@@H](C)C3)nc2CNC(=O)C(C)C)cc(C)n1 [Compound 40, N-[[2-[(2R,6S)-2,6-dimethyl-4-morpholinyl]-5-(2,6-dimethyl-4-pyridinyl)-4-thiazolyl]methyl]-2-methyl-propanamide]",2
–,661,"Cc1cc(-c2sc(N3C[C@@H](C)O[C@@H](C)C3)nc2CNC(=O)C2CC2)cc(C)n1 [Compound 48, N-[[2-[(2R,6S)-2,6-dimethyl-4-morpholinyl]-5-(2,6-dimethyl-4-pyridinyl)-4-thiazolyl]methyl]-cyclopropanecarboxamide]",2
384,295,"COc1cc(-c2sc(N3C[C@@H](C)O[C@@H](C)C3)nc2CNC(=O)c2conc2C)cc(C)n1 [Compound 81, N-[[2-[(2R,6S)-2,6-dimethyl-4-morpholinyl]-5-(2-methoxy-6-methyl-4-pyridinyl)-4-thiazolyl]methyl]-3-methyl-4-isoxazolecarboxamide]",2
528,631,"Cc1cc(-c2sc(N3C[C@@H](C)O[C@@H](C)C3)nc2CNC(=O)C2CCC2)ccn1 [Compound 89, N-[[2-[(2R,6S)-2,6-dimethyl-4-morpholinyl]-5-(2-methyl-4-pyridinyl)-4-thiazolyl]methyl]-cyclobutanecarboxamide]",2
464,2400,"Cc1cc(-c2sc(N3C[C@@H](C)O[C@@H](C)C3)nc2CNC(=O)c2nc(C)oc2C)cc(C)n1 [Compound 134, N-[[2-[(2R,6S)-2,6-dimethyl-4-morpholinyl]-5-(2,6-dimethyl-4-pyridinyl)-4-thiazolyl]methyl]-2,5-dimethyl-4-oxazolecarboxamide]",0
–,2140,"Cc1cc(-c2sc(N3C[C@@H](C)O[C@@H](C)C3)nc2CNC(=O)c2ccc(S(N)(=O)=O)cc2)cc(C)n1 [Compound 144, 4-(aminosulfonyl)-N-[[2-[(2R,6S)-2,6-dimethyl-4-morpholinyl]-5-(2,6-dimethyl-4-pyridinyl)-4-thiazolyl]methyl]-benzamide]",2
–,1230,"Cc1cc(-c2sc(N3C[C@@H](C)O[C@@H](C)C3)nc2CNC(=O)c2oncc2C)cc(C)n1 [Compound 148, N-[[2-[(2R,6S)-2,6-dimethyl-4-morpholinyl]-5-(2,6-dimethyl-4-pyridinyl)-4-thiazolyl]methyl]-4-methyl-5-isoxazolecarboxamide]",0
791,871,"Cc1cc(-c2sc(N3C[C@@H](C)O[C@@H](C)C3)nc2CNC(=O)C2CC(=O)OC2(C)C)cc(C)n1 (stereo partly drawn) [Compound 154, N-[[2-[(2R,6S)-2,6-dimethyl-4-morpholinyl]-5-(2,6-dimethyl-4-pyridinyl)-4-thiazolyl]methyl]tetrahydro-2,2-dimethyl-5-oxo-3-furancarboxamide]",1
–,525,"Cc1cc(-c2sc(N3C[C@@H](C)O[C@@H](C)C3)nc2CNC(=O)Cc2c(C)noc2C)cc(C)n1 [Compound 166, N-[[2-[(2R,6S)-2,6-dimethyl-4-morpholinyl]-5-(2,6-dimethyl-4-pyridinyl)-4-thiazolyl]methyl]-3,5-dimethyl-4-isoxazoleacetamide]",1
924,69.2,"Cc1cc(-c2sc(N3C[C@@H](C)O[C@@H](C)C3)nc2CNC(=O)CC(F)(F)F)cc(C)n1 [Compound 168, N-[[2-[(2R,6S)-2,6-dimethyl-4-morpholinyl]-5-(2,6-dimethyl-4-pyridinyl)-4-thiazolyl]methyl]-3,3,3-trifluoro-propanamide]",1
